The test system of assay [1] is ascites cells obtained during an operation of a patient with endometrial cancer. In words: Live-cell fluorescence imaging of ascites cells, endometrial cancer patient, reactive mesothelial cells (Example 3). Type of assay: cell-based, human. The conditions noted are these: cell population in region of interest, apparent reactive mesothelial cells on Papanicolaou staining; 100 μM 2-NBDLG and 20 μM 2TRLG; FIG. 5A. The procedure: Immediately after the start of laparotomy for endometrial cancer, the peritoneal cavity was washed with physiological saline in the same manner as in Example 1 to obtain a peritoneal washing, which was then added to a 50 mL centrifuge tube having 5 mL of the Hanks solution in advance. The resulting ascitic fluid suspension was centrifuged at 1500 G for 2 minutes at room temperature, and then the supernatant was removed with a dropper. Some of the resulting pellet was set aside for cytodiagnosis tests at the hospital's pathology department, and the rest was dispersed into 15 mL of a KRB solution in a 15 mL centrifuge tube, then again centrifuged at 1500 G for 2 minutes at room temperature, and the supernatant was removed with a dropper. The pellet primarily includes red blood cells, and a large amount of red blood cells may obscure the target cells, interfering with microscopy. […]
An ×2 fLG solution prepared as in Example 1 (2-1) in an amount of 1 mL was added and mixed, and the cells was exposed to fLG for 5 minutes in a 37° C. water bath. […] Bright field image: high sensitivity, transmitted illumination intensity 25, aperture stop 20%, exposure time 1/500 s • Green fluorescence image: high sensitivity, excitation light intensity 100%, exposure time 1/4 s • Red fluorescence image: high sensitivity, excitation light intensity 10%, exposure time 1/10 s • (Experiment Results)

Assay [2] relates to ascites cells obtained during an operation of a patient with ovarian cancer (serous adenocarcinoma). Nature of the assay: Live-cell fluorescence imaging by the perfusion method, original ascites cells, ovarian cancer patient (Example 4). The class given is cell-based, human. To be noted: cancer cell cluster; perfusion 100 μM 2-NBDLG and 20 μM 2-TRLG for 5 minutes, imaged 10 minutes after switch to KRB; FIG. 7A/7B, 8D. As for the experimental part:
A surplus portion of the original ascitic fluid taken from the peritoneal cavity immediately after the start of laparotomy for ovarian cancer (serous adenocarcinoma) was added to a 50 mL centrifuge tube having 5 mL of the Hanks solution in advance. The obtained ascitic fluid suspension was checked for presence of fibrin with a toothpick, and then passed through a mesh to remove fat and impurities. Next, it was evenly dispensed into two 50 mL centrifuge tubes, and centrifuged at 1500 G for 2 minutes at room temperature. The supernatant of each of the two centrifuge tubes was then gently removed from the liquid surface down to 7.5 mL with an electric pipette, and then the rest was further removed with a dropper to leave 1 mL. The sedimented layer containing red blood cells and the like were present at the bottom of the centrifuge tube. A 1 mL portion was collected from the upper surface with a dropper without aspirating red blood cells from the sedimented layer to obtain an ascites cell suspension. • (2) Adhesion of Ascites Cells on Glass Plate by Centrifugation, and Method of Maintaining Cell Viability
The ascites cells were allowed to attach on a glass plate using a commercially available automated cell collecting system CF-12D (Sakura Finetek Japan Co., Ltd.). […]

Entries after “also recorded” stand apart in the source; their conditions may differ.

As to `O=C[C@@H](Nc1ccc([N+](=O)[O-])c2nonc12)[C@H](O)[C@@H](O)[C@@H](O)CO` [2-NBDLG, 2-[N-(7-nitrobenz-2-oxa-1,3-diazole-4-yl)amino]-2-deoxy-L-glucose], the “fluorescence from 2-NBDLG (green wavelength region)” value in assay [1] is given as “shows fluorescence”. Moreover, in assay [2], the “fluorescence from 2-NBDLG (green wavelength region), after vs before application of fLG” value is “shows fluorescence; also recorded: positive”.

The values above are taken from patent publication US20170315129A1, “CANCER CELL DETECTION METHOD USING LIVING BODY-DERIVED CELLS OF BIOLOGICAL ORIGIN” (Hirosaki University, priority 2014, published 2017).
